Assay results: the supplement of paper PMC3974653
“And” between values parts separate entries of the source, which are not always exact repeats. Identical values can stand only once. Counter-ions that a name gives are not always drawn.

How the values were obtained:
[1] = system: MTT (mouse pheochromocytoma); assay: IC50 of cell viability (ATP content); AC50 where efficacy is positive; details: (24 or 48 h)
[2] = system: MTT (mouse pheochromocytoma); assay: efficacy (maximal response) relative to doxorubicin = -100% and DMSO = 0%; higher = less inhibition of viability; details: (24 or 48 h)

| IC50 of cell viability [1] | SMILES | efficacy [2] |
| --- | --- | --- |
| 23.7 µM | CN(C)C1=CC=C(C=C1)C(C2=CC=C(C=C2)N(C)C)=C/3\C=C/C(/C=C3)=[N+](C)C [Chlorure de methylrosanilinum] | -111% |
| 13.3 µM | COC(=O)[C@H]1[C@H]2C[C@@H]3c4[nH]c5ccccc5c4CCN3C[C@H]2C[C@@H](OC(=O)c2cc(OC)c(OC)c(OC)c2)[C@@H]1OC [DESERPIDINE] | -92.6% |
| 0.531 µM | COC(=O)Nc1nc2cc(C(=O)c3cccs3)ccc2[nH]1 [Nocodazole] | -60.2% |
| 15 µM | CCCCCCCCCCCC[N+](C)(C)CCOc1ccccc1 [Domiphen bromide] | -99.3% |
| 2.66 µM | O=C(Nc1cccc(C(F)(F)F)c1)c1cc(Br)cc(Br)c1O [FLUOROSALAN] | -35.6% |
| 26.6 µM | CN(CCCN1c2ccccc2CCc2ccccc21)CC(=O)c1ccc(Cl)cc1 [LOFEPRAMINE HYDROCHLORIDE] | -62.9% |
| 13.3 µM | Cc1nc2ccccc2n1Cc1ccc(Cl)cc1 [Chlormidazole] | -59% |
| 18.8 µM | COCC(=O)NC1=CC(SC2=CC=CC=C2)=CC=C1\N=C(/NC(=O)OC)NC(=O)OC [FEBANTEL] | -48% |
| 2.37 µM | O=C(CCCCCCC(=O)Nc1ccccc1)NO [SUBEROYLANILIDE HYDROXAMIC ACID] | -58.6% |
| 0.453 µM | CCCCc1ccc2[nH]c(NC(=O)OC)nc2c1 [Parbendazole] | -45.1% |
| 0.299 µM | CCN1/C(=C/C=C/c2ccc3ccccc3[n+]2CC)C=Cc2ccccc21 [Quinaldine blue] | -34.9% |
| 4.22 µM | CCC(C(=O)C(C)C(O)C(C)CCc1ccc(C)c(O)c1C(=O)[O-])C1OC(CC)(C2CC[C@@](O)(CC)C(C)O2)CC1C.[Na+] (some centres undefined) [LASALOCID SODIUM] | -40.1% |
| 0.376 µM | CCCCCCCCCCCC[n+]1ccc2ccccc2c1 [LAURYL ISOQUINOLINIUM BROMIDE] | -31.3% |
| 21.1 µM | C[C@@H]1CN(CCCn2c3ccccc3c3ccccc32)C[C@H](C)N1 [Rimcazole dihydrochloride] | -89.8% |
| 11.9 µM | F\C1=C\NC(=O)NC1=O [5-Fluorouracil] | -67.4% |
| 13.3 µM | CN/C(=N/C#N)NCCSCc1nc[nH]c1C [CIMETIDINE] | -40.4% |
| 16.8 µM | CCCCC(=O)OCC(=O)[C@]1(O)Cc2c(O)c3c(c(O)c2[C@H](OC2CC(NC(=O)C(F)(F)F)C(O)C(C)O2)C1)C(=O)c1c(OC)cccc1C3=O (some centres undefined) [Valrubicin] | -78% |
| 10.6 µM | CC(C)(C)CC(C)(C)c1ccc(OCCOCC[N+](C)(C)Cc2ccccc2)cc1 [Benzethonium chloride] | -94.4% |
| 18.8 µM | [H]/N=C(/c1ccc(OCCCCCC)c2ccccc12)N(CCCC)CCCC [BUNAMIDINE HYDROCHLORIDE] | -96.3% |
| 8.41 µM | CC(C)OC(=O)Nc1ccc2[nH]c(-c3cscn3)nc2c1 [CAMBENDAZOLE] | -45.2% |
| 0.473 µM | O=C(Nc1ccc([N+](=O)[O-])cc1Cl)c1cc(Cl)ccc1O [Niclosamide] | -41.1% |
| 6.68 µM | CN(C)C1=CC=C(C=C1)C(=C2\C=C/C(/C=C2)=[N+](/C)C)\C3=C(O)C(=CC4=CC(=CC=C34)S([O-])(=O)=O)S([O-])(=O)=O [LISSAMINE GREEN B] | -54.2% |
| 21.1 µM | C/C(=C(/CCOC(=O)C(C)C)SS/C(CCOC(=O)C(C)C)=C(\C)N(C=O)Cc1cnc(C)nc1N)N(C=O)Cc1cnc(C)nc1N [BISIBUTHIAMINE] | -43.4% |
| 26.6 µM | O=C(Nc1ccc(Br)cc1)c1cc(Br)c(Br)s1 [Tibrofan] | -64.5% |

| IC50 of cell viability [1] | SMILES | efficacy [2] |
| --- | --- | --- |
| 0.376 µM | COc1cc(NCc2ccc3nc(N)nc(N)c3c2C)cc(OC)c1OC [TRIMETREXATE GLUCURONATE] | -50.7% |
| 15 µM | CCCCCCCCCCCCCCCC[N+](C)(C)Cc1ccccc1.O.[Cl-] [CETALKONIUM CHLORIDE] | -56.9% |
| 8.41 µM | CN(C)C1=CC=C(C=C1)C(C2=CC=CC=C2)=C/3\C=C/C(/C=C3)=[N+](C)C [Malachite Green Oxalate] | -61.3% |
| 7.5 µM | C\N=C1/C=C\C(\C=C1)=C(/C2=CC=C(C=C2)N(C)C)C3=CC=C(C=C3)N(C)C [METHYL VIOLET] | -70.3% |
| 18.8 µM | OC[C@H]1O[C@@H](n2cnc3c(S)ncnc32)[C@H](O)[C@@H]1O [Thionosine] | -85.4% |
| 10.1 µM | Oc1ccc(OCc2ccccc2)cc1 [Monobenzone] | -55.4% |
| 1.01 µM | COC(=O)Nc1nc2cc(Sc3ccccc3)ccc2[nH]1 [Fenbendazole] | -61.4% |
| 8.41 µM | CNC(=O)c1cc(Oc2ccc(NC(=O)Nc3ccc(Cl)c(C(F)(F)F)c3)cc2)ccn1 [SORAFENIB TOSYLATE] | -44.4% |
| 11.9 µM | Cl.CCC1=C2CN3C(=O)\C4=C(/C=C3/C2=NC5=CC=C(OC(=O)N6CCC(CC6)N7CCCCC7)C=C15)[C@@](O)(CC)C(=O)OC4 [IRINOTECAN HYDROCHLORIDE] | -66.8% |
| 11.9 µM | CCCCCCCCCCCCCCCC[N+](C)(C)CC [Mecetronium ethylsulfate] | -78.5% |
| 0.64 µM | COC(=O)Nc1nc2cc(C(=O)c3ccccc3)ccc2[nH]1 [Mebendazole] | -49.2% |
| 21.1 µM | Cl.CC(C)(C)[C@]1(O)CC[N@@]2C[C@H]3C4=C(CCC5=CC=CC(=C35)[C@@H]2C1)C=CC=C4 [(?)-Butaclamol hydrochloride] | -70.8% |
| 0.0531 µM | O=C(CCCCCCC(=O)Nc1ccccc1)NO [Suberoylanilide Hydroxamic Acid] | -43.5% |
| 26.6 µM | Cc1cc(O)c2ccccc2c1O [Menadiol] | -94.6% |
| 1.88 µM | CCCCCCNC(=O)N1\C=C(F)/C(=O)NC1=O [CARMOFUR] | -56.9% |
| 4.73 µM | Cl.CC[C@@]1(O)C(=O)OCC/2=C1/C=C/3N(CC4=C3N=C5C=CC(=C(CN(C)C)C5=C4)O)C2=O [TOPOTECAN HYDROCHLORIDE] | -89.7% |
| 16.8 µM | O=S(=O)([O-])c1ccc2c(/N=N/c3ccc(S(=O)(=O)[O-])c4ccccc34)c(O)c(S(=O)(=O)[O-])cc2c1 [FD & C Red Dye No. 2] | -95.8% |
| 2.37 µM | O=S(=O)([O-])c1cc(O)c2c(/N=N/c3ccc(Nc4ccccc4)c4c(S(=O)(=O)[O-])cccc34)cc(S(=O)(=O)[O-])cc2c1 [ANAZOLENUM NATRICUM] | -33.8% |
| 13.3 µM | CCCCCCCCCCCCCCCC[N+](C)(C)C [Cetyltrimethylammonium bromide] | -89.1% |
| 4.22 µM | COc1ccc2cc3[n+](cc2c1OC)CCc1cc2c(cc1-3)OCO2 [Berberine chloride] | -53.9% |
| 6.68 µM | COC(=O)C12CCC(C)(C)CC1C3C(=O)\C=C4/C(C)(CCC5C(C)(C)C(=O)\C(=C/C45C)C#N)C3(C)CC2 (centres undefined) [RTA 402] | -108% |
| 21.1 µM | Cl.Nc1c2ccccc2nc2ccccc12.O [9-Aminoacridine HCl H2O] | -110% |
| 11.9 µM | CCCOc1ccc2nc(NC(=O)OC)sc2c1 [Tioxidazole] | -55.6% |
| 15 µM | Cc1cc(CC(C)CC(C)(C)C)n(O)c(=O)c1 (centres undefined) [PIROCTONE OLAMINE] | -49% |

| SMILES | IC50 of cell viability [1] | efficacy [2] |
| --- | --- | --- |
| Oc1cc[c]([Hg][Cl])cc1 [PARA-CHLOROMERCURIPHENOL] | 2.37 µM | -97.8% |
| [Hg+][c]1ccccc1 [PHENYLMERCURIC BORATE] | 2.99 µM | -91.5% |
| CCCCCCCCCCCCCCCC[n+]1ccccc1 [Cetylpyridinium bromide] | 10.6 µM | -96.5% |
| ClC(Cl)(Cl)SN1C(=O)C2C\C=C/CC2C1=O (centres undefined) [Captan] | 2.99 µM | -65.8% |
| COc1ccc(CCN2CCC(Nc3nc4ccccc4n3Cc3ccc(F)cc3)CC2)cc1 [ASTEMIZOLE] | 16.8 µM | -74.8% |
| O=[N+]([O-])C(Br)(CO)CO [Bronopol] | 15 µM | -58.4% |
| CC[n+]1c(-c2ccccc2)c2cc(N)ccc2c2ccc(N)cc21.[Br-] [HOMIDIUM BROMIDE] | 11.9 µM | -34.1% |
| O=C(CCl)c1ccc(Cl)cc1Cl [2,2',4'-Trichloroacetophenone] | 8.63 µM and 3.76 µM | -84.4% and -71.5% |
| N#Cc1nn(-c2c(Cl)cc(C(F)(F)F)cc2Cl)c(N)c1[S+]([O-])C(F)(F)F (centres undefined) [FIPRONIL] | 23.7 µM | -88.6% |
